What follows are compounds tested against human orexin-2 receptor (Homo sapiens (Human), UniProt O43614) (assay: Human orexin 2 receptor radioligand binding ([3H]-EMPA competition)). Conditions: HEK293 cells stably expressing human orexin-2 receptor; [3H]-EMPA 5 nM final; apparent Ki=IC50/(1+C/Kd), Kd=2 nM; read-out: OR 2 Ki.
Chain of human orexin-2 receptor (O43614 whole entry): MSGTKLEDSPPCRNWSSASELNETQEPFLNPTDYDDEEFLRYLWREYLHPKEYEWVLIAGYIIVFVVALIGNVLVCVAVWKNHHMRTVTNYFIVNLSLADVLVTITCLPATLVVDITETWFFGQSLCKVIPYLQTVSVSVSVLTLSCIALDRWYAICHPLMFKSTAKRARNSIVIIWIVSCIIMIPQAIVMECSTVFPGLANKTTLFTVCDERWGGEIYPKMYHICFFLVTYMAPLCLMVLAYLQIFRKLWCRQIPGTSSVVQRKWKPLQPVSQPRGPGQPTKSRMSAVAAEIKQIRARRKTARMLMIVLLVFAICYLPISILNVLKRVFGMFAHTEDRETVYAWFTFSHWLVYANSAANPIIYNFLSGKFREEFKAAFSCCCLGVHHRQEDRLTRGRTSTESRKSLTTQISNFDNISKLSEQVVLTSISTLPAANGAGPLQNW

In order of falling Ki:
1. Cc1cc(C)nc(N2CC3CN(C(=O)c4cnnc5ccccc45)CC3C2)n1 (centres unmarked) [Example 203, Cinnolin-4-yl-[5-(4,6-dimethyl-pyrimidin-2-yl)-hexahydro-pyrrolo[3,4-c]pyrrol-2-yl]-methanone]  5000 nM
2. COc1cc2ccccc2cc1C(=O)N1CC2CN(c3nc(C)cc(C)n3)CC2C1 (centres unmarked) [Example 338, [5-(4,6-Dimethyl-pyrimidin-2-yl)-hexahydro-pyrrolo[3,4-c]pyrrol-2-yl]-(3-methoxy-naphthalen-2-yl)-methanone]  1600 nM
3. Cc1cc(N2CC3CN(C(=O)c4ccccc4-n4nccn4)CC3C2)nc(C(C)C)n1 (centres unmarked) [Example 81, [5-(2-Isopropyl-6-methyl-pyrimidin-4-yl)-hexahydro-pyrrolo[3,4-c]pyrrol-2-yl]-(2-[1,2,3]triazol-2-yl-phenyl)-methanone]  1220 nM
4. O=C(c1ccccc1-c1ccccc1)N1CC2CN(c3nc4ccccc4o3)CC2C1 (centres unmarked) [Example 184, (5-Benzooxazol-2-yl-hexahydro-pyrrolo[3,4-c]pyrrol-2-yl)-biphenyl-2-yl-methanone]  1040 nM
5. Cc1ccc(-c2ccc(F)cc2C(=O)N2CC3CN(c4nc(C)cc(C)n4)CC3C2)nc1 (centres unmarked) [Example 401, (5-(4,6-Dimethylpyrimidin-2-yl)hexahydropyrrolo[3,4-c]pyrrol-2(1H)-yl)(5-fluoro-2-(5-methylpyridin-2-yl)phenyl)methanone]  830 nM
6. Cc1ccccc1C(=O)N1CC2CN(c3cnc4ccccc4n3)CC2C1 (centres unmarked) [Example 30, 2-{5-[(2-Methylphenyl)carbonyl]hexahydropyrrolo[3,4-c]pyrrol-2(1H)-yl}quinoxaline]  790 nM
7. CCOc1ccccc1C(=O)N1CC2CN(c3nccc(OC)n3)CC2C1 (centres unmarked) [Example 59, 2-[(2-Ethoxyphenyl)carbonyl]-5-(4-methoxypyrimidin-2-yl)octahydropyrrolo[3,4-c]pyrrole]  778 nM
8. COc1ccc(C(=O)N2CC3CN(c4nc(C)cc(C)n4)CC3C2)c(C)c1 (centres unmarked) [Example 277, (5-(4,6-Dimethylpyrimidin-2-yl)hexahydropyrrolo[3,4-c]pyrrol-2(1H)-yl)(4-methoxy-2-methylphenyl)methanone]  680 nM
9. O=C(c1ccccc1Br)N1CC2CN(c3cnc4ccccc4n3)CC2C1 (centres unmarked) [Example 42, 2-{5-[(2-Bromophenyl)carbonyl]hexahydropyrrolo[3,4-c]pyrrol-2(1H)-yl}quinoxaline]  616 nM
10. Cc1cc(C)nc(N2CC3CN(C(=O)c4c(C)cccc4C)CC3C2)n1 (centres unmarked) [Example 225, 2-[(2,6-Dimethylphenyl)carbonyl]-5-(4,6-dimethylpyrimidin-2-yl)octahydropyrrolo[3,4-c]pyrrole]  423 nM
11. O=C(c1ccccc1-n1cccn1)N1CC2CN(c3nccc(-c4ccccc4)n3)CC2C1 (centres unmarked) [Example 23, 2-(4-Phenylpyrimidin-2-yl)-5-{[2-(1H-pyrazol-1-yl)phenyl]carbonyl}octahydro-pyrrolo[3,4-c]pyrrole]  364 nM
12. Cc1cc(C)nc(N2CC3CN(C(=O)c4cc(Cl)ccc4C)CC3C2)n1 (centres unmarked) [Example 223, 2-[(5-Chloro-2-methylphenyl)carbonyl]-5-(4,6-dimethylpyrimidin-2-yl)octahydropyrrolo[3,4-c]pyrrole]  340 nM
13. Cc1cc(C)nc(N2CC3CN(C(=O)c4ccccc4-c4ccccc4)CC3C2)n1 (centres unmarked) [Example 44, 2-(Biphenyl-2-ylcarbonyl)-5-(4,6-dimethylpyrimidin-2-yl)octahydropyrrolo[3,4-c]pyrrole]  142 nM
14. O=C(c1cc(F)ccc1-c1ncccn1)N1CC2CN(c3nccc(C(F)(F)F)n3)CC2C1 (centres unmarked) [Example 148, 2-[(5-Fluoro-2-pyrimidin-2-ylphenyl)carbonyl]-5-[4-(trifluoromethyl)pyrimidin-2-yl]octahydropyrrolo[3,4-c]pyrrole]  129 nM
15. Cc1cc(N2CC3CN(C(=O)c4ccccc4-c4ccccc4)CC3C2)nc2ccccc12 (centres unmarked) [Example 178, 2-[5-(Biphenyl-2-ylcarbonyl)hexahydropyrrolo[3,4-c]pyrrol-2(1H)-yl]-4-methylquinoline]  123 nM
16. O=C(c1ccccc1-c1cccs1)N1CC2CN(c3ncccc3C(F)(F)F)CC2C1 (centres unmarked) [Example 140, 2-[(2-Thiophen-2-ylphenyl)carbonyl]-5-[3-(trifluoromethyl)pyridin-2-yl]octahydro pyrrolo[3,4-c]pyrrole]  119 nM
17. CN(C)c1cc(N2CC3CN(C(=O)c4cc(F)ccc4-n4nccn4)CC3C2)nc(C(F)(F)F)n1 (centres unmarked) [Example 9, 6-[5-{[5-Fluoro-2-(2H-1,2,3-triazol-2-yl)phenyl]carbonyl}hexahydropyrrolo[3,4-c]pyrrol-2(1H)-yl]-N,N-dimethyl-2-(trifluoromethyl)pyrimidin-4-amine]  101 nM
18. Cc1cccc(-c2c(F)cccc2C(=O)N2CC3CN(c4nc(C)cc(C)n4)CC3C2)n1 (centres unmarked) [Example 370, (5-(4,6-Dimethylpyrimidin-2-yl)hexahydropyrrolo[3,4-c]pyrrol-2(1H)-yl)(3-fluoro-2-(6-methylpyridin-2-yl)phenyl)methanone]  84 nM
19. O=C(c1ccccc1-c1cccs1)N1CC2CN(c3nccc(-c4ccco4)n3)CC2C1 (centres unmarked) [Example 34, 2-(4-Furan-2-ylpyrimidin-2-yl)-5-[(2-thiophen-2-ylphenyl)carbonyl]octahydro-pyrrolo[3,4-c]pyrrole]  79 nM
20. Cc1cc(C)nc(N2CC3CN(C(=O)c4cccnc4-c4ccn[nH]4)CC3C2)n1 (centres unmarked) [Example 237, (2-(1H-Pyrazol-5-yl)pyridin-3-yl)(5-(4,6-dimethylpyrimidin-2-yl)hexahydropyrrolo[3,4-c]pyrrol-2(1H)-yl)methanone]  69 nM
21. O=C(c1ccccc1-c1ccccc1)N1CC2CN(c3cnc4ccccc4n3)CC2C1 (centres unmarked) [Example 168, 2-[5-(Biphenyl-2-ylcarbonyl)hexahydropyrrolo[3,4-c]pyrrol-2(1H)-yl]quinoxaline]  66 nM
22. CN(C)c1nc(N2CC3CN(C(=O)c4cc(F)ccc4-n4nccn4)CC3C2)cc(C(F)(F)F)n1 (centres unmarked) [Example 110, 4-[5-{[5-Fluoro-2-(2H-1,2,3-triazol-2-yl)phenyl]carbonyl}hexahydropyrrolo[3,4-c]pyrrol-2(1H)-yl]-N,N-dimethyl-6-(trifluoromethyl)pyrimidin-2-amine]  52 nM
23. COc1ccnc(N2CC3CN(C(=O)c4ccc(F)cc4-n4nccn4)CC3C2)n1 (centres unmarked) [Example 159, 2-{[4-Fluoro-2-(2H-1,2,3-triazol-2-yl)phenyl]carbonyl}-5-(4-methoxypyrimidin-2-yl)octahydropyrrolo[3,4-c]pyrrole]  45 nM
24. CCc1c(C)nc(N2CC3CN(C(=O)c4ncccc4-n4nccn4)CC3C2)nc1C (centres unmarked) [Example 385, 2-(5-Ethyl-4,6-dimethylpyrimidin-2-yl)-5-{[3-(2H-1,2,3-triazol-2-yl)pyridin-2-yl]carbonyl}octahydropyrrolo[3,4-c]pyrrole]  42 nM
25. Cc1cc(C)nc(N2CC3CN(C(=O)c4c(F)cccc4-c4nc(C)no4)CC3C2)n1 (centres unmarked) [Example 315, 2-(4,6-Dimethylpyrimidin-2-yl)-5-{[2-fluoro-6-(3-methyl-1,2,4-oxadiazol-5-yl)phenyl]carbonyl}octahydropyrrolo[3,4-c]pyrrole]  38 nM
26. Cc1cc(C)nc(N2CC3CN(C(=O)c4ccc(F)cc4-c4ccccn4)CC3C2)n1 (centres unmarked) [Example 366, (5-(4,6-Dimethylpyrimidin-2-yl)hexahydropyrrolo[3,4-c]pyrrol-2(1H)-yl)(4-fluoro-2-(pyridin-2-yl)phenyl)methanone]  23 nM
27. CN(C)c1nc(N2CC3CN(C(=O)c4c(F)cccc4-c4ncccn4)CC3C2)cc(C(F)(F)F)n1 (centres unmarked) [Example 116, 4-{5-[(2-Fluoro-6-pyrimidin-2-ylphenyl)carbonyl]hexahydropyrrolo[3,4-c]pyrrol-2(1H)-yl}-N,N-dimethyl-6-(trifluoromethyl)pyrimidin-2-amine]  22 nM
28. Cc1cc(C)nc(N2CC3CN(C(=O)c4cccc(F)c4-c4ncccc4F)CC3C2)n1 (centres unmarked) [Example 375, (5-(4,6-Dimethylpyrimidin-2-yl)hexahydropyrrolo[3,4-c]pyrrol-2(1H)-yl)(3-fluoro-2-(3-fluoropyridin-2-yl)phenyl)methanone]  21 nM
29. Cc1nc(N2CC3CN(C(=O)c4ccccc4-n4nccn4)CC3C2)ncc1F (centres unmarked) [Example 290, 2-(5-Fluoro-4-methylpyrimidin-2-yl)-5-{[2-(2H-1,2,3-triazol-2-yl)phenyl]carbonyl}octahydropyrrolo[3,4-c]pyrrole]  19 nM
30. Cc1cc(C)nc(N2CC3CN(C(=O)c4cc(F)ccc4-c4ncco4)CC3C2)n1 (centres unmarked) [Example 404, (5-(4,6-Dimethylpyrimidin-2-yl)hexahydropyrrolo[3,4-c]pyrrol-2(1H)-yl)(5-fluoro-2-(oxazol-2-yl)phenyl)methanone]  19 nM
31. O=C(c1cccc(F)c1-c1ncccn1)N1CC2CN(c3ncc4cc(F)ccc4n3)CC2C1 (centres unmarked) [Example 243, (3-Fluoro-2-(pyrimidin-2-yl)phenyl)(5-(6-fluoroquinazolin-2-yl)hexahydropyrrolo[3,4-c]pyrrol-2(1H)-yl)methanone]  16 nM
32. Cc1cc(C)nc(N2CC3CN(C(=O)c4cccc(F)c4-c4ncccn4)CC3C2)n1 (centres unmarked) [Example 283, 2-(4,6-Dimethylpyrimidin-2-yl)-5-[(3-fluoro-2-pyrimidin-2-ylphenyl)carbonyl]octahydropyrrolo[3,4-c]pyrrole]  10 nM
33. Cc1nc(N2CC3CN(C(=O)c4cccc(F)c4-n4nccn4)CC3C2)nc(C)c1C (centres unmarked) [Example 240, (3-Fluoro-2-(2H-1,2,3-triazol-2-yl)phenyl)(5-(4,5,6-trimethylpyrimidin-2-yl)hexahydropyrrolo[3,4-c]pyrrol-2(1H)-yl)methanone]  7 nM
34. Cc1noc(-c2ccccc2C(=O)N2CC3CN(c4nc(C)c(C)c(C)n4)CC3C2)n1 (centres unmarked) [Example 309, 2-{[2-(3-Methyl-1,2,4-oxadiazol-5-yl)phenyl]carbonyl}-5-(4,5,6-trimethylpyrimidin-2-yl)octahydropyrrolo[3,4-c]pyrrole]  7 nM
35. Cc1nc(N2CC3CN(C(=O)c4cccc(F)c4-c4ncccn4)CC3C2)nc(C)c1C (centres unmarked) [Example 239, (3-Fluoro-2-(pyrimidin-2-yl)phenyl)(5-(4,5,6-trimethylpyrimidin-2-yl)hexahydropyrrolo[3,4-c]pyrrol-2(1H)-yl)methanone]  7 nM

Source: patent US8653263B2 (Janssen Pharmaceutica, priority 2009, dated 2014)
